# Assay results from patent publication US7759377B2, “Acylaminothiazole derivatives and use thereof as beta-amyloid inhibitors” (Sanofi-Aventis, priority 2004, dated 2010).
# pEC50: −log10 of the molar value.
# Target: T1, gamma-secretase (Homo sapiens, UniProt P49768, M146L)
# T1 construct: expressed in transfected cells; host or cells: CHO-K1, clone 30-12
# Test: β-amyloid cellular test: inhibition of production of β-A4 peptide, ELISA of cellular supernatants
# Type: cell-based
# Settings: CHO-K1 line coexpressing CT100 of APP and PS1 M146L clone 30-12; 24-25 h incubation; secreted amyloid peptide by ELISA
# From the text: For the β-amyloid cellular test, the CHO—K1 line coexpressing the CT100 of APP and PS1 M146L clone 30-12 is used. The line targets the inhibition of gamma-secretase. Presenilin is linked to gamma-secretase activity (Wolfe M S, Haass C., The Role of presenilins in gamma-secretase activity, J. Biol. Chem. 2001, 276(8): 5413-6) and its coexpression with the amyloid protein or its N-terminal fragment causes an increase in secretion of the peptide A1-42 (β-A4), thereby generating a pharmacological tool which allows inhibition by the compounds of formula (I) of the production of the β-A4 peptide to be evaluated. 96-well culture plates are inoculated with 1×10^5 cells per well in 150 μl of incubation medium. The presence of a minimum percentage (1.3% final) of serum allows cellular adhesion to the plastic after 2-3 hours of incubation at 37° C., in the presence of 5% CO2. The products (15 μl) are tested at 10 μM DMSO 1% final and are incubated for 24-25 h at 37° C. in the presence of 5% CO2 and 100% humidity. After this 24-25 h incubation, the cellular supernatants (100 μl) are transferred to ELISA plates, treated with the capture antibody 6E10 (6E10, epitope: aa1-17, INTERCHIM/SENETEK 320/10), to determine the amount of amyloid peptides secreted by the cells in the presence of compounds according to the invention. A series of synthetic control peptide, “peptide 1-40”, at 5 and 10 ng/ml is treated in parallel. The ELISA plates are incubated overnight at 4° C.
# The quantity of bound peptide is detected indirectly in the presence of a competitor which corresponds to the truncated peptide, peptide 1-28 coupled to biotin, which is then detected with streptavidin coupled to alkaline phosphatase. The substrate, p-nitrophenyl phosphate (pNPP FAST p-Nitrophenyl Phosphate, Sigma N2770), gives a yellow, soluble reaction product which can be read at 405 nm. The reaction is stopped with 0.1 M EDTA solution. For this purpose, following binding of the amyloid peptide in the ELISA plate, 50 μl of biotinylated peptide 1-28 are added to 100 μl of cellular supernatant and incubated for 30 minutes at ambient temperature. The ELISA plates are then washed 3 times. After drying by inversion on absorbent paper, 100 μl of streptavidin-alkaline phosphatase (Interchim/Jackson ImmunoResearch Laboratories 016-050-084) are added per well and incubated for 1 hour at ambient temperature. The plates are washed again and then the alkaline phosphatase substrate (pNPP 1 mg/ml) is added in an amount of 100 μl per well. After 30 minutes of incubation at ambient temperature the reaction is stopped by adding 100 μl per well of 0.1 M EDTA and reading is carried out at 405 nm.
row,SMILES,pEC50
1,CCC[C@H](NC(=O)[C@@H](O)C(C)(C)C)C(=O)Nc1nc(-c2nc(-c3ccccc3)no2)c(C(C)C)s1 [Compound 7],7.28
2,"CCC[C@H](NC(=O)[C@@H](O)C(C)(C)C)C(=O)Nc1nc(-c2nc3ccccc3o2)c(C(C)C)s1 [Compound 34, 2-{2-(S)-[2-(S)-hydroxy(3,3-dimethyl)butyrylamino]pentanoyl}amino-5-(1-methylethyl)-4-(1,3-benzoxazol-2-yl)thiazole]",7.38
3,"CCC[C@H](NC(=O)[C@@H](O)C(C)(C)C)C(=O)Nc1ncc(-c2nnnn2Cc2ccccc2)s1 [Compound 51, 2-{2-(S)-[2-(S)-hydroxy(3,3-dimethyl)butyrylamino]pentanoyl}amino-5-(1-benzyl-1H-tetrazol-5-yl)thiazole]",7.03
4,CCCC(NC(=O)C(O)c1cc(F)cc(F)c1)C(=O)Nc1nc(C)c(-c2nc(C)no2)s1 (stereo not shown) [Compound 40],7.07
